Reference: the supplement of paper PMC10307832

Tests used:
Test in all cases: relative viability (nuclei count vs DMSO), 5 days (fraction); higher = more cells survive
LCLC-97TM1 = test system: LCLC-97TM1
In short: (§1)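 Five library-drug doses in √10 steps were combined with a fixed anchor-drug dose, or a single drug was given alone, by pin tool to lung cancer cell lines in 1536-well plates the day after seeding. Nuclei were stained and counted after 5 days. Relative viability is the nuclei count in treated wells over that in vehicle wells, taken as the median of duplicate plates.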

NCI-H1650 = test system: NCI-H1650
In short: as §1

PC-3 [JPC-3] = test system: PC-3 [JPC-3]
In short: as §1

NCI-H1734 = test system: NCI-H1734
In short: as §1

NCI-H1355 = test system: NCI-H1355
In short: as §1

NCI-H1975 = test system: NCI-H1975
In short: as §1

H3255 = test system: H3255
In short: as §1

HCC-15 = test system: HCC-15
In short: as §1

NCI-H322M = test system: NCI-H322M
In short: as §1

NCI-H520 = test system: NCI-H520
In short: as §1

RERF-LC-KJ = test system: RERF-LC-KJ
In short: as §1

NCI-H2405 = test system: NCI-H2405
In short: as §1

NCI-H2228 = test system: NCI-H2228
In short: as §1

EKVX = test system: EKVX
In short: as §1

CAL-12T = test system: CAL-12T
In short: as §1

PC-14 = test system: PC-14
In short: as §1

NCI-H1755 = test system: NCI-H1755
In short: as §1

HCC-827 = test system: HCC-827
In short: as §1

NCI-H1563 = test system: NCI-H1563
In short: as §1

NCI-H661 = test system: NCI-H661
In short: as §1

`Cc1sc2c(c1C)C(c1ccc(Cl)cc1)=N[C@@H](CC(=O)OC(C)(C)C)c1nnc(C)n1-2` [JQ1] + CC(C)C[C@H](NC(=O)[C@H](Cc1ccccc1)NC(=O)c1cnccn1)B(O)O [Bortezomib] (partner 0.002 µM) was tested. Which relative viability (LCLC-97TM1; first compound 0.04 µM) did it give?
Its relative viability is 0.492.

And the relative viability (LCLC-97TM1; first compound 0.1265 µM)?
Its relative viability is 0.533.

What about the relative viability (LCLC-97TM1; first compound 0.4 µM) of the same molecule?
The relative viability was 0.336.

What about the relative viability (LCLC-97TM1; first compound 1.265 µM) of the same molecule?
Its relative viability is 0.0995.

And the relative viability (LCLC-97TM1; first compound 4 µM)?
Its relative viability is 0.0548.

And the relative viability (NCI-H1650; first compound 0.04 µM)?
Its relative viability is 0.177.

And the relative viability (NCI-H1650; first compound 0.1265 µM)?
The relative viability was 0.191.

What about the relative viability (NCI-H1650; first compound 0.4 µM) of the same molecule?
The relative viability was 0.187.

And the relative viability (NCI-H1650; first compound 1.265 µM)?
The relative viability was 0.175.

What about the relative viability (NCI-H1650; first compound 4 µM) of the same molecule?
Its relative viability is 0.208.

And the relative viability (PC-3 [JPC-3]; first compound 0.04 µM)?
Its relative viability is 0.845.

And the relative viability (PC-3 [JPC-3]; first compound 0.1265 µM)?
The relative viability was 0.81.

And the relative viability (PC-3 [JPC-3]; first compound 0.4 µM)?
The relative viability was 0.977.

What about the relative viability (PC-3 [JPC-3]; first compound 1.265 µM) of the same molecule?
Its relative viability is 0.675.

What about the relative viability (PC-3 [JPC-3]; first compound 4 µM) of the same molecule?
Its relative viability is 0.352.

And the relative viability (NCI-H1734; first compound 0.04 µM)?
The relative viability was 0.967.

And the relative viability (NCI-H1734; first compound 0.1265 µM)?
Its relative viability is 0.788.

What about the relative viability (NCI-H1734; first compound 0.4 µM) of the same molecule?
Its relative viability is 0.878.

And the relative viability (NCI-H1734; first compound 1.265 µM)?
The relative viability was 0.597.

What about the relative viability (NCI-H1734; first compound 4 µM) of the same molecule?
The relative viability was 0.474.

And the relative viability (NCI-H1355; first compound 0.04 µM)?
The relative viability was 1.17.

What about the relative viability (NCI-H1355; first compound 0.1265 µM) of the same molecule?
The relative viability was 1.07.

And the relative viability (NCI-H1355; first compound 0.4 µM)?
Its relative viability is 1.05.

And the relative viability (NCI-H1355; first compound 1.265 µM)?
The relative viability was 0.86.

What about the relative viability (NCI-H1355; first compound 4 µM) of the same molecule?
Its relative viability is 0.669.

And the relative viability (NCI-H1975; first compound 0.04 µM)?
Its relative viability is 0.355.

And the relative viability (NCI-H1975; first compound 0.1265 µM)?
Its relative viability is 0.258.

What about the relative viability (NCI-H1975; first compound 0.4 µM) of the same molecule?
Its relative viability is 0.317.

What about the relative viability (NCI-H1975; first compound 1.265 µM) of the same molecule?
The relative viability was 0.177.

And the relative viability (NCI-H1975; first compound 4 µM)?
The relative viability was 0.152.

What about the relative viability (H3255; first compound 0.04 µM) of the same molecule?
The relative viability was 0.628.

What about the relative viability (H3255; first compound 0.1265 µM) of the same molecule?
Its relative viability is 0.553.

And the relative viability (H3255; first compound 0.4 µM)?
Its relative viability is 0.747.

And the relative viability (H3255; first compound 1.265 µM)?
Its relative viability is 0.306.

What about the relative viability (H3255; first compound 4 µM) of the same molecule?
The relative viability was 0.278.

And the relative viability (HCC-15; first compound 0.04 µM)?
The relative viability was 0.958.

And the relative viability (HCC-15; first compound 0.4 µM)?
Its relative viability is 0.98.

What about the relative viability (HCC-15; first compound 1.265 µM) of the same molecule?
The relative viability was 0.705.

What about the relative viability (HCC-15; first compound 4 µM) of the same molecule?
Its relative viability is 0.628.

What about the relative viability (NCI-H322M; first compound 0.04 µM) of the same molecule?
The relative viability was 1.33.

What about the relative viability (NCI-H322M; first compound 0.1265 µM) of the same molecule?
Its relative viability is 1.24.

And the relative viability (NCI-H322M; first compound 0.4 µM)?
Its relative viability is 1.35.

What about the relative viability (NCI-H322M; first compound 1.265 µM) of the same molecule?
Its relative viability is 1.04.

And the relative viability (NCI-H322M; first compound 4 µM)?
Its relative viability is 0.94.

And the relative viability (NCI-H520; first compound 0.04 µM)?
Its relative viability is 0.527.

What about the relative viability (NCI-H520; first compound 0.1265 µM) of the same molecule?
The relative viability was 0.242.

What about the relative viability (NCI-H520; first compound 0.4 µM) of the same molecule?
Its relative viability is 0.157.

What about the relative viability (NCI-H520; first compound 1.265 µM) of the same molecule?
Its relative viability is 0.167.

What about the relative viability (NCI-H520; first compound 4 µM) of the same molecule?
Its relative viability is 0.136.

What about the relative viability (RERF-LC-KJ; first compound 0.04 µM) of the same molecule?
Its relative viability is 1.17.

What about the relative viability (RERF-LC-KJ; first compound 0.1265 µM) of the same molecule?
Its relative viability is 1.11.

And the relative viability (RERF-LC-KJ; first compound 0.4 µM)?
Its relative viability is 1.13.

And the relative viability (RERF-LC-KJ; first compound 1.265 µM)?
Its relative viability is 0.52.

What about the relative viability (RERF-LC-KJ; first compound 4 µM) of the same molecule?
Its relative viability is 0.415.

And the relative viability (NCI-H2405; first compound 0.04 µM)?
Its relative viability is 1.07.

What about the relative viability (NCI-H2405; first compound 0.1265 µM) of the same molecule?
Its relative viability is 0.628.

What about the relative viability (NCI-H2405; first compound 0.4 µM) of the same molecule?
The relative viability was 1.03.

And the relative viability (NCI-H2405; first compound 1.265 µM)?
The relative viability was 0.827.

What about the relative viability (NCI-H2405; first compound 4 µM) of the same molecule?
The relative viability was 0.678.

What about the relative viability (NCI-H2228; first compound 0.04 µM) of the same molecule?
Its relative viability is 0.764.

And the relative viability (NCI-H2228; first compound 0.1265 µM)?
The relative viability was 0.918.

And the relative viability (NCI-H2228; first compound 0.4 µM)?
The relative viability was 0.609.

And the relative viability (NCI-H2228; first compound 1.265 µM)?
Its relative viability is 0.245.

And the relative viability (NCI-H2228; first compound 4 µM)?
The relative viability was 0.185.

And the relative viability (EKVX; first compound 0.04 µM)?
Its relative viability is 0.981.

And the relative viability (EKVX; first compound 0.1265 µM)?
Its relative viability is 0.842.

What about the relative viability (EKVX; first compound 0.4 µM) of the same molecule?
The relative viability was 1.16.

What about the relative viability (EKVX; first compound 1.265 µM) of the same molecule?
The relative viability was 0.749.

What about the relative viability (EKVX; first compound 4 µM) of the same molecule?
Its relative viability is 0.704.

What about the relative viability (CAL-12T; first compound 0.04 µM) of the same molecule?
Its relative viability is 1.06.

What about the relative viability (CAL-12T; first compound 0.4 µM) of the same molecule?
The relative viability was 0.638.

And the relative viability (CAL-12T; first compound 1.265 µM)?
Its relative viability is 0.415.

What about the relative viability (CAL-12T; first compound 4 µM) of the same molecule?
The relative viability was 0.317.

What about the relative viability (PC-14; first compound 0.04 µM) of the same molecule?
The relative viability was 0.811.

What about the relative viability (PC-14; first compound 0.1265 µM) of the same molecule?
Its relative viability is 0.901.

And the relative viability (PC-14; first compound 0.4 µM)?
Its relative viability is 0.888.

What about the relative viability (PC-14; first compound 1.265 µM) of the same molecule?
The relative viability was 0.346.

And the relative viability (PC-14; first compound 4 µM)?
The relative viability was 0.201.

What about the relative viability (NCI-H1755; first compound 0.04 µM) of the same molecule?
The relative viability was 0.923.

What about the relative viability (NCI-H1755; first compound 0.1265 µM) of the same molecule?
The relative viability was 0.807.

And the relative viability (NCI-H1755; first compound 0.4 µM)?
Its relative viability is 0.995.

And the relative viability (NCI-H1755; first compound 1.265 µM)?
Its relative viability is 0.618.

And the relative viability (NCI-H1755; first compound 4 µM)?
Its relative viability is 0.44.

What about the relative viability (HCC-827; first compound 0.04 µM) of the same molecule?
Its relative viability is 0.929.

What about the relative viability (HCC-827; first compound 0.4 µM) of the same molecule?
Its relative viability is 0.743.

What about the relative viability (HCC-827; first compound 1.265 µM) of the same molecule?
Its relative viability is 1.25.

What about the relative viability (HCC-827; first compound 4 µM) of the same molecule?
Its relative viability is 0.928.

And the relative viability (NCI-H1563; first compound 0.04 µM)?
Its relative viability is 0.909.

What about the relative viability (NCI-H1563; first compound 0.1265 µM) of the same molecule?
Its relative viability is 0.619.

What about the relative viability (NCI-H1563; first compound 0.4 µM) of the same molecule?
The relative viability was 0.642.

What about the relative viability (NCI-H1563; first compound 1.265 µM) of the same molecule?
The relative viability was 0.544.

And the relative viability (NCI-H1563; first compound 4 µM)?
The relative viability was 0.621.

What about the relative viability (NCI-H661; first compound 0.04 µM) of the same molecule?
Its relative viability is 0.783.

And the relative viability (NCI-H661; first compound 0.1265 µM)?
Its relative viability is 0.83.

What about the relative viability (NCI-H661; first compound 0.4 µM) of the same molecule?
Its relative viability is 0.576.

And the relative viability (NCI-H661; first compound 1.265 µM)?
The relative viability was 0.431.

What about the relative viability (NCI-H661; first compound 4 µM) of the same molecule?
Its relative viability is 0.537.
